According to ChEMBL document CHEMBL1240378, “Pharmacokinetic-pharmacodynamic modeling of alpha interferon response induced by a Toll-like 7 receptor agonist in mice” (Antimicrob Agents Chemother, 2010):

Experiments:
[1] = Clearance in CD1 mouse at 0.1 to 10 mg/kg, po; assay type: ADME, organism-based; parameters: dose 0.1-10 mg/kg, route oral; conditions: in vivo
[2] = tested on: Mus musculus; experiment: Volume of distribution in central compartment in CD1 mouse at 0.1 to 10 mg/kg, po; assay type: ADME, organism-based; parameters: dose 0.1-10 mg/kg, route oral; conditions: in vivo
[3] = tested on: Mus musculus; experiment: Absorption rate constant for depot compartment in CD1 mouse at 0.1 to 10 mg/kg, po; assay type: ADME, organism-based; parameters: dose 0.1-10 mg/kg, route oral; conditions: in vivo
[4] = tested on: Mus musculus; experiment: Intercompartmental clearance in CD1 mouse at 0.1 to 10 mg/kg, po; assay type: ADME, organism-based; parameters: dose 0.1-10 mg/kg, route oral; conditions: in vivo
[5] = tested on: Mus musculus; experiment: Induction of IFNalpha production in CD1 mouse assessed as concentration of compound required for half-maximal synthesis of INF-alpha at 0.1 to 10 mg/kg, po; assay type: functional; conditions: dose mg/kg 0.1-10
[6] = tested on: Mus musculus; experiment: Induction of IFNalpha production in CD1 mouse assessed as elimination rate constant for interferon alpha at 0.1 to 10 mg/kg, po; assay type: functional; conditions: dose mg/kg 0.1-10
[7] = tested on: Mus musculus; experiment: Induction of IFNalpha production in CD1 mouse assessed as maximum rate of interferon alpha synthesis at 0.1 to 10 mg/kg, po; assay type: functional; conditions: dose mg/kg 0.1-10
[8] = tested on: Mus musculus; experiment: Apparent volume of distribution in CD1 mouse at 0.1 to 10 mg/kg, po; assay type: ADME, organism-based; parameters: dose 0.1-10 mg/kg, route oral; conditions: in vivo
[9] = Oral bioavailability in rat at 3 mg/kg; assay type: ADME, organism-based; conditions: in vivo
[10] = tested on: Hepatitis C virus; experiment: Antiviral activity against HCV infected in human Huh7 cells with persistent PFK1389-Luc-Ubi-Neo-NS3-3'/ET replicon after 48 hrs by luminescence based assay; assay type: functional, organism-based, Hepacivirus hominis; conditions: Huh-7, 48 h

CL/F [1]: 57.5 mL/min/kg
Vd [2]: 4.31 L/kg
Ka [3]: 35 h⁻¹
CL [4]: 46.3 mL/min/kg
Vz [8]: 40 L/kg
bioavailability [9]: 40%
EC50 [10]: 30 nM
SMILES: COCCOc1nc(N)c2[nH]c(=O)n(Cc3ccccc3)c2n1
SC50 [5]: 135 ng/mL
Activity [6]: 0.958 h⁻¹
Smax [7]: 294 IU/ml/hr
